Assay results as given in patent publication US20160168126A1, “CHEMICAL COMPOUNDS” (SYNGENTA LIMITED, priority 2013, published 2016).

Tested on: a variety of test species
Test: Post-emergence herbicidal activity (glasshouse, sprayed 8 days after sowing, evaluated after 13 days)
Format: in vivo
Settings: scale 0-5
Experimental: Seeds of a variety of test species were sown in standard soil in pots. After 8 days cultivation (post-emergence) under controlled conditions in a glasshouse (at 24/16° C., day/night; 14 hours light; 65% humidity), the plants were sprayed with an aqueous spray solution derived from the formulation of the technical active ingredient in acetone/water (50:50) solution containing 0.5% Tween 20 (polyoxyethelyene sorbitan monolaurate, CAS RN 9005-64-5). The test plants were then grown in a glasshouse under controlled conditions (at 24/16° C., day/night; 14 hours light; 65% humidity) and watered twice daily. After 13 days, the test was evaluated (5=total damage to plant; 0=no damage to plant).

Structure (SMILES)	Post-emergence herbicidal damage score, ABUTH (Abutilon theophrasti) (250 g/ha)	Post-emergence herbicidal damage score, ALOMY (Alopecurus myosuroides) (250 g/ha)	Post-emergence herbicidal damage score, AMARE (Amaranthus retroflexus) (250 g/ha)	Post-emergence herbicidal damage score, ECHCG (Echinochloa crus-galli) (250 g/ha)	Post-emergence herbicidal damage score, SETFA (Setaria faberi) (250 g/ha)	Post-emergence herbicidal damage score, ZEAMX (Zea mays) (250 g/ha)	Post-emergence herbicidal damage score, ABUTH (Abutilon theophrasti) (1000 g/ha)	Post-emergence herbicidal damage score, ALOMY (Alopecurus myosuroides) (1000 g/ha)	Post-emergence herbicidal damage score, AMARE (Amaranthus retroflexus) (1000 g/ha)	Post-emergence herbicidal damage score, ECHCG (Echinochloa crus-galli) (1000 g/ha)	Post-emergence herbicidal damage score, SETFA (Setaria faberi) (1000 g/ha)	Post-emergence herbicidal damage score, ZEAMX (Zea mays) (1000 g/ha)
CC1=C(Cl)C(O)N(c2cc3n(n2)CCC3(C)C)C1=O (stereo not drawn) [Compound G2]	5	5	5	5	5	4						
CCn1nc(N2C(=O)C(C)=C(Cl)C2O)cc1C(F)(F)F (stereo not drawn) [Compound C1]							3	3	5	4	0	1
CC1=C(Cl)C(O)N(c2cc(C#N)n(CC(F)(F)F)n2)C1=O (stereo not drawn) [Compound C7]							3	0	0	0	1	0
CC1=C(Br)C(O)N(c2cc(C(C)(C)C)[nH]n2)C1=O (stereo not drawn) [Compound H2]							5	3	5	2	4	2
CC1=C(Cl)C(OC(=O)Oc2ccccc2)N(c2cc(C(C)(C)C)n(C)n2)C1=O (stereo not drawn) [Compound F2]							5	4	5	5	5	1
CC1=C(Cl)C(O)N(c2cc(C(F)C(C)(C)C)n(C)n2)C1=O (mixture of isomers) [Compound B19]							4	2	4	3	4	0
CC1=C(Br)C(O)N(c2nn(C)c3c2CCC3(C)C)C1=O (stereo not drawn) [Compound H10]							5	5	5	4	5	3
CC1=C(Br)C(O)N(c2cc(C(F)(F)F)n(C)n2)C1=O (stereo not drawn) [Compound H4]							5	5	5	2	1	0
CC1=C(Cl)C(O)N(c2nn(C)c3c2C2CCC3C2)C1=O (stereo not drawn) [Compound B29]							5	4	5	5	5	3
CC(C)=CCc1cc(N2C(=O)C(C)=C(Br)C2O)nn1C (stereo not drawn) [Compound H3]							0	0	0	0	0	0
CC1=C(Cl)C(O)N(c2cc(CCC(C)C)n(C)n2)C1=O (stereo not drawn) [Compound B12]							1	0	0	0	0	0
COC1=C(C)C(=O)N(c2cc(C(C)(C)C)[nH]n2)C1O (stereo not drawn) [Compound I1]	5	3	5	3	5	1						
CCC(C)(OC)c1cc(N2C(=O)C(C)=C(Cl)C2O)nn1C (mixture of isomers) [Compound B13]							5	3	3	2	4	0
CC1=C(Cl)C(O)N(c2cc(C(C)(C)C)[nH]n2)C1=O (stereo not drawn) [Compound A1]	5	4	2	5	4	0						
CC1=C(Cl)C(O)N(c2cc(C(C)(F)C(C)(C)C)n(C)n2)C1=O (mixture of isomers) [Compound B22]							1	1	0	2	3	1
CC1=C(Cl)C(O)N(c2cc3n(n2)CCC3C)C1=O (mixture of isomers) [Compound G1]							5	4	5	5	4	2
CC1=C(Cl)C(O)N(c2cc(C3CC3)[nH]n2)C1=O (stereo not drawn) [Compound A4]							5	4	4	5	4	1
CC1=C(Cl)C(O)N(c2cc3n(n2)CCCC3(C)C)C1=O (stereo not drawn) [Compound G4]							5	5	5	5	5	2
CC1=C(Cl)C(O)N(c2cc(C)[nH]n2)C1=O (stereo not drawn) [Compound A5]							5	4	3	2	4	2
CC1=C(Br)C(O)N(c2cc3n(n2)CCCC3(C)C)C1=O (stereo not drawn) [Compound H8]							5	5	5	4	4	0
CC1=C(Cl)C(O)N(c2cc(C(F)(F)F)n(CC(F)(F)F)n2)C1=O (stereo not drawn) [Compound C5]							2	0	1	0	0	3
CC1=C(Cl)C(O)N(c2cc(/C=C/C(C)(C)C)n(C)n2)C1=O (stereo not drawn) [Compound B11]							0	0	0	0	0	0
CC1=C(Br)C(O)N(c2cc3n(n2)CCC3(C)C)C1=O (stereo not drawn) [Compound H7]							5	5	4	3	4	1
CC1=C(Cl)C(O)N(c2cc(C)n(C)n2)C1=O (stereo not drawn) [Compound B1]							5	2	5	2	1	1
